# pIC50: −log10 of the molar value.
# Key:
# human FGFR3 enzyme = human FGFR3 enzyme (Homo sapiens (Human), UniProt P22607); assay: Inhibitory activity against the FGFR3 enzyme (phosphorylation of biotinylated peptide, time-resolved fluorescence)
# Description: Inhibitory Activity Against the FGFR3 Enzyme
# (§1) Phosphorylated biotinylated peptides were detected by the time-resolved fluorescent measurement using a europium cryptate-linked anti-phophotyrosine antibody and a streptavidin to which XL665, a derivative of allophycocyanine, is linked.
# human FGFR1 enzyme = human FGFR1 enzyme (Homo sapiens (Human), UniProt P11362); assay: Inhibitory activity against the FGFR1 enzyme (phosphorylation of biotinylated peptide, time-resolved fluorescence)
# Description: Inhibitory Activity Against the FGFR1 Enzyme
# as §1
# human FGFR2 enzyme = human FGFR2 enzyme (Homo sapiens (Human), UniProt P21802); assay: Inhibitory activity against the FGFR2 enzyme (phosphorylation of biotinylated peptide, time-resolved fluorescence)
# Sequence of human FGFR2 enzyme (P21802 22-821): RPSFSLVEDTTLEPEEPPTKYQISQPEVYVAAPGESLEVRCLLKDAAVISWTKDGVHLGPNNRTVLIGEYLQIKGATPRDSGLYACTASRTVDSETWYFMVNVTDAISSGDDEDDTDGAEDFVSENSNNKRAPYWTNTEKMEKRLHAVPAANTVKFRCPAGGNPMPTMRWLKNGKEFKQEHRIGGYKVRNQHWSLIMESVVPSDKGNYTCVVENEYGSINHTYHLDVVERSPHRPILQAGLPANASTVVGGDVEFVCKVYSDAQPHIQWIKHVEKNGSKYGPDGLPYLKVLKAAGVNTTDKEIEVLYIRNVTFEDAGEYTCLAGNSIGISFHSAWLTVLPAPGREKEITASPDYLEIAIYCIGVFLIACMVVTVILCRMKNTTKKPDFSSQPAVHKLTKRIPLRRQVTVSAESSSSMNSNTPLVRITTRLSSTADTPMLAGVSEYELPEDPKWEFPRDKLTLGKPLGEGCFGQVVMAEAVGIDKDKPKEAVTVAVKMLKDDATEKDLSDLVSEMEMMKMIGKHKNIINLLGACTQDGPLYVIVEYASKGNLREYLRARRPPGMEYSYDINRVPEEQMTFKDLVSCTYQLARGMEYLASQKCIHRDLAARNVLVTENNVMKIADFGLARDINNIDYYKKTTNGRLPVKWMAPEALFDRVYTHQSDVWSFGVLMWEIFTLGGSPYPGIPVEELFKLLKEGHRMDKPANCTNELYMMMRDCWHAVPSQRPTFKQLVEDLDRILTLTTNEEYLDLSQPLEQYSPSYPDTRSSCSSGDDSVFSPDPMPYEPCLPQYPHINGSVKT
# Description: as §1
# Sequence of human FGFR3 enzyme (P22607 23-806): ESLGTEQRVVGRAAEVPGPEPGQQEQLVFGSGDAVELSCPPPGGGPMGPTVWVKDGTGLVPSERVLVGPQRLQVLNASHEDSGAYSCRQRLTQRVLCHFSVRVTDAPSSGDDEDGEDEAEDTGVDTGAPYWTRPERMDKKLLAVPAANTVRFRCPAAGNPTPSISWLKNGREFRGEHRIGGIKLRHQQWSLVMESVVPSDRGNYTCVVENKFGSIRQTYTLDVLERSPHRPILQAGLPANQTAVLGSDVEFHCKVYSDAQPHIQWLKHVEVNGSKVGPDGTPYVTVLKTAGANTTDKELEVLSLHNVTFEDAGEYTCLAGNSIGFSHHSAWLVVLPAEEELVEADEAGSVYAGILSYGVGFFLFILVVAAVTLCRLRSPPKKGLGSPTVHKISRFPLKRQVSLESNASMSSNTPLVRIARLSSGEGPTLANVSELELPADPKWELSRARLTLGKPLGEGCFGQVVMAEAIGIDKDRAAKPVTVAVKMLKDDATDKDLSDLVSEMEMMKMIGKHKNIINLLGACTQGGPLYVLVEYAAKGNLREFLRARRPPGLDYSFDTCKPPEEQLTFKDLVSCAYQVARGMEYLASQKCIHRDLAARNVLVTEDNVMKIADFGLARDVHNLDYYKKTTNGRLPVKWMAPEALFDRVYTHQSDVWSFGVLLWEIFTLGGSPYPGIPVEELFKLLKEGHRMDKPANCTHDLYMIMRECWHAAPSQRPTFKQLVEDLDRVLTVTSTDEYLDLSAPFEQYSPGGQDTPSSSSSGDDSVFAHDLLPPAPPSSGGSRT
# Sequence of human FGFR1 enzyme (P11362 22-822): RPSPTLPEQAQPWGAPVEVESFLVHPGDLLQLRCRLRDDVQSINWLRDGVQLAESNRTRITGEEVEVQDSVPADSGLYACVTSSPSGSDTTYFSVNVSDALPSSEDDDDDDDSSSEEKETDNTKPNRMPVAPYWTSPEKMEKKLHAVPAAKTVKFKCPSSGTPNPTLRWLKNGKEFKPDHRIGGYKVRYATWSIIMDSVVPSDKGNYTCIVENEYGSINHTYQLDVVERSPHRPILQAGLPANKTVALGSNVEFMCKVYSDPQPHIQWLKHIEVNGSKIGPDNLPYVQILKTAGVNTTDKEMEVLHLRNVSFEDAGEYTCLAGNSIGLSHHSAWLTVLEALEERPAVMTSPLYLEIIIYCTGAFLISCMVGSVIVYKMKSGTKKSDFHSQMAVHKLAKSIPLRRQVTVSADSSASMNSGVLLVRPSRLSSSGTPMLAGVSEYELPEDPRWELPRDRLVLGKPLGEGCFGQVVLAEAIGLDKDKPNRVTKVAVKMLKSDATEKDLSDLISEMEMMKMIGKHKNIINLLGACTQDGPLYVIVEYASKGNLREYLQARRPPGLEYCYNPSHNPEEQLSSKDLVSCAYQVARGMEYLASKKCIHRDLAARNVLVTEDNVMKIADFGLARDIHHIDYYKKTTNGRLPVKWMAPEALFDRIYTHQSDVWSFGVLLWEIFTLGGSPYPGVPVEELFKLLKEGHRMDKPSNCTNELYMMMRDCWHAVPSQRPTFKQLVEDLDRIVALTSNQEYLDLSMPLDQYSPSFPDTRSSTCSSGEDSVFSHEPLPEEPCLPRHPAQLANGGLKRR
pIC50 (human FGFR3 enzyme),pIC50 (human FGFR1 enzyme),pIC50 (human FGFR2 enzyme),Structure (SMILES)
≥ 6.52,–,–,Cc1ccnc(-c2ccc3cc(C(=O)c4cnn(-c5ccc6[nH]c(C)nc6c5)c4N)[nH]c3c2)c1 [Example 32]
≥ 6.52,–,–,"Cc1nc2cc(-n3ncc(C(=O)c4cc5cc6c(cc5[nH]4)OCO6)c3N)ccc2[nH]1 [Example 61, [5-amino-1-(2-methyl-1H-benzimidazol-5-yl)-1H-pyrazol-4-yl]-(5H-[1,3]dioxolo[4,5-f]indol-6-yl)-methanone]"
≥ 6.52,≥ 6.52,≥ 6.52,"Cc1nc2cc(-n3ncc(C(=O)c4cc5ccc(-c6ccc(N7CCNCC7)nc6)cc5[nH]4)c3N)ccc2[nH]1 [Example 110, [5-amino-1-(2-methyl-1H-benzimidazol-5-yl)-1H-pyrazol-4-yl]-[6-(6-piperazin-1-yl-pyridin-3-yl)-1H-indol-2-yl]-methanone]"
≥ 6.52,–,–,"Cc1nc2cc(-n3ncc(C(=O)c4cc5ccc(-c6ccnnc6)cc5[nH]4)c3N)ccc2[nH]1 [Example 89, [5-amino-1-(2-methyl-1H-benzimidazol-5-yl)-1H-pyrazol-4-yl]-(6-pyridazin-4-yl-1H-indol-2-yl)-methanone]"
